Data from patent publication US10793527B2, “Adenosine monophosphate-activated protein kinase agonist” (NATIONAL YANG-MING UNIVERSITY, priority 2016, dated 2020).

Legend:
[1] = Treatment of diet-induced obesity (DIO) mice, body weight; type: in vivo; details: compared to the control group of mice (FIG. 6)
Text: The male mice C57BL/6 were purchased from the National Laboratory Animal Center (NLAC, Taipei, Taiwan) and fed high-fat-die for 4 weeks to establish the diet-induced obesity (DIO) mouse model for subsequent experiments

PLC/PRF/5 (PLC5) cells = test: Cell viability of liver cancer cells (Prestoblue), PLC5; type: cell-based; details: for IC50: PLC5 cells, 48 hr
Description: (§1) Hepatoma cell Huh-7 was obtained from Health Science Research Resources Bank (HSRRB, Osaka. Japan; JCRB0403); Hepatoma cell PLC/PRF/5 (PLC5), Sk-Hep-1 and HCC1806 were obtained from the American Type Culture Collection (ATCC, Manassas, Va.). All cell lines are cultured immediately and frozen, so the frozen cells can be thawed every 3 months to allow experiments are conducted with the same batch of cells.
(§2) Analysis is performed using a commercial kit Prestoblue assay produced by Thermo Fisher Scientific. Three liver cancer cell lines PLC/PRF/5, SK-hep1, and Huh-7 are cultured with compound SCT-1015 for 48 hours and 72 hours, respectively. […] The results support that the compound of the present invention can activate AMPK to inhibit the proliferation of liver cancer cells.

SK-hep1 cells = test: Cell viability of liver cancer cells (Prestoblue), SK-hep1; type: cell-based; details: 5-20 μM, 48 hours and 72 hours, compared with control (DMSO) (FIG. 3)
Description: as §1, §2

[2] = biological target: recombinant protein human AMPK (α1, β1, γ1) (Homo sapiens, UniProt Q13131); test: AMPK enzyme activity assay (SAMS peptide), recombinant protein; type: biochemical; details: 20-2,000 nM compound; compared with the group without compound addition (FIG. 1B)
Description: (§3) The protein extract of liver cancer cell PLC5 and the anti-AMPKα1 antibody were incubated in an immunoprecipitation buffer (G-Biosciences) overnight. Protein A/G Magnetic Beads (PureProteome™) are added to each sample respectively and incubated at 4° C. for 4 hours. In the case of the recombinant protein AMPK, 12.5 ng of the recombinant protein human AMPK (α1, β1, γ1) is incubated with various doses of the compound, and then AMPK activities are detected based on the manual of the SAMS peptide assay (Cyclex).
(§4) It is shown by FIGS. 1A and 1B that the SCT-1015 compound can increase the activity of AMPK in liver cancer cells.

Huh-7 cells = test: Cell viability of liver cancer cells (Prestoblue), Huh-7; type: cell-based; details: 5-20 μM, 48 hours and 72 hours, compared with control (DMSO) (FIG. 3)
Description: as §1, §2

[3] = tested on: phosphorylated AMPKα (p-AMPKα); test: Detection of AMPK phosphorylation by immuno-blot assay; type: cell-based; details: PLC5, MDA-MB-231 and MDA-MB-453 cells; compared with the non-treated group (FIGS. 2A-2C)
Description: (§5) The liver cancer cell PCL5 and the triple negative breast cancer cell (TNBC) MBA-MB-231 and MDA-MB-453 are cultured with the compound SCT-1015, respectively. The cells are collected, wash, and lysed by RIPA buffer to obtain a protein extract. The protein concentration was measured by Bio-Rad Protein Assay dye reagent (Bio-Rad). The protein samples are diluted with 2 times SDS-loading buffer (100 mM Tris HCl, pH 6.8, 200 mM β-mercaptoethanol, 4% SDS, 0.02% bromophenol blue, and 20% glycerol) to adjust volume, and electrophoresis is carried out using 10% SDS polyacrylamide gels and followed by transferring to PVDF membrane. The primary antibody is added to detect the target protein on the membrane, and then the secondary antibody with horseradish peroxidase is added, followed by addition of substrate (enhanced SuperSignal West Pico Cheminluminescent Substrate, Pierce) to obtain the signal of the specific protein. and the protein content is determined by β-actin. The β-actin is used as an internal control for protein amount.

mature adipocytes = test: Cell growth of adipocytes (adipoRed staining, cell imaging); type: cell-based, human
Description: (§6) According to the standard procedure of adipocyte differentiation, human pre-adipocytes are treated with adipogenesis reagent (Gibco StemPro) for 14 days to induce differentiation into mature adipocytes. Next, mature adipocytes are treated with different concentrations of compound SCT-1015 (100 μM, 25 μM, 12.5 μM, 5 μM, and 2.5 μM), solvent only (Mock), or non-treated and cultivated for 48 hours. Then, the adipocytes are stained with adipoRed (Lonza inc.), and the cell number is evaluated by fluorescence signals measured at excited and emission wavelength are 485 nm and 572 nm, respectively. In addition, after the cells were treated with 2.5 μM. of the compound SCT-1015, the cell morphology was also observed through cell imaging.

HIF1 and PDHK1 = test: Immuno-blot of downstream signaling molecules in liver cancer cell lines; type: cell-based; details: PLC/PRF/5, SK-hep1 and Huh-7 (FIG. 2D)
Description: as §5

HCC1806/luc2 cells = test: In situ triple negative breast cancer mouse model (HCC1806/luc2-bearing orthotopic mice), IVIS; type: in vivo; details: 20 mg/kg, fed daily for 14 days (FIG. 4)
Description: An in situ triple negative breast cancer mouse model (HCC1806/luc2-bearing orthotopic mice) is established with HCC1806 cells carrying the luciferase (luc2) gene. The experimental mice are divided into two groups, namely (1) control group: solvent; (2) experimental group: compound SCT-1015 (20 mg/kg), and the mice are fed daily for 14 days. On day 0 and day 14, the substrate of luciferase is injected into the peritoneal cavity of mice, and the luminescence from HCC1806/luc2 cells is detected by in vivo imaging system (IVIS) to monitor cell growth.
The results support that the compound of the present invention can activate AMPK to inhibit the growth of triple-negative breast cancer cells.

[4] = biological target: T1, AMPKα1 immunoprecipitated protein extract (Homo sapiens, UniProt Q13131); test: AMPK enzyme activity assay (SAMS peptide), AMPKα1 immunoprecipitated from PLC5 protein extract; type: biochemical; details: 20-20,000 nM compound; compared to the group without compound addition (FIG. 1A)
T1 construct: AMPKα1 immunoprecipitated protein extract; endogenous in cells; host or cells: PLC5 liver cancer cells (immunoprecipitate on Protein A/G magnetic beads)
Description: as §3, §4

undifferentiated cells = test: Morphology of undifferentiated cells in the adipocyte culture; type: cell-based; details: 2.5 μM (FIG. 5B)
Description: as §6

AMPK T172 = test: Detection of AMPK phosphorylation by ELISA assay in PLC5 cells; type: cell-based; details: PLC5 cultured with 10 μM compound for 24 hours, compared to control group
Description: In this analysis, the commercial kit AMPK […] Phospho-ELISA Kit (KHO0651) produced by ThermoFisher Science is utilized. The hepatoma cell PLC5 is cultured with 10 μM of the compound for 24 hours, and the analysis is performed according to the manual, and the absorbance was detected at a wavelength of 450 nm.

Sequence of recombinant protein human AMPK (α1, β1, γ1) (Q13131 whole entry): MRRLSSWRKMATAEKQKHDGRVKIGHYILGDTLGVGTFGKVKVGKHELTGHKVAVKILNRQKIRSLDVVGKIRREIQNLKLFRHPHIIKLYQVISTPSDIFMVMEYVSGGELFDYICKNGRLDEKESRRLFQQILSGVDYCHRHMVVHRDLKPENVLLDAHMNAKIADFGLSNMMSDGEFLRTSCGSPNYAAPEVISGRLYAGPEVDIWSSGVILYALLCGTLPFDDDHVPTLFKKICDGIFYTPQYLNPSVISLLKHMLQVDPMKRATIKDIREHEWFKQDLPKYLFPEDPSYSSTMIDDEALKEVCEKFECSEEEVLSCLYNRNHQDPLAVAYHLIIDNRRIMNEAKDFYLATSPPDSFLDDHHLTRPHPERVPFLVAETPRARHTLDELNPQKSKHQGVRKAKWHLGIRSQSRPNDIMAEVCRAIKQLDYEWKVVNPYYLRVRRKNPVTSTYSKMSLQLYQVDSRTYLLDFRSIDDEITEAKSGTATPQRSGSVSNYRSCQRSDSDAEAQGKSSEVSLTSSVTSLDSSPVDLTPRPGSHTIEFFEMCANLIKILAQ
Sequence of recombinant protein human AMPK (α1, β1, γ1) (Q9Y478 whole entry partner): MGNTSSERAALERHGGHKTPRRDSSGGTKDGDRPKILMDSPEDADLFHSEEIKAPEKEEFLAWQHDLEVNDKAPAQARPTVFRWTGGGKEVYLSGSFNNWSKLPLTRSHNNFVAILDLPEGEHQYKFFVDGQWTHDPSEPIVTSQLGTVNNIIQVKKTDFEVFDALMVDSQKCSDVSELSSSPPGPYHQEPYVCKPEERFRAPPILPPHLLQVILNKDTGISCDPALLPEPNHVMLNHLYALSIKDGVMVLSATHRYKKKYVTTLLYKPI
Sequence of recombinant protein human AMPK (α1, β1, γ1) (P54619 whole entry partner): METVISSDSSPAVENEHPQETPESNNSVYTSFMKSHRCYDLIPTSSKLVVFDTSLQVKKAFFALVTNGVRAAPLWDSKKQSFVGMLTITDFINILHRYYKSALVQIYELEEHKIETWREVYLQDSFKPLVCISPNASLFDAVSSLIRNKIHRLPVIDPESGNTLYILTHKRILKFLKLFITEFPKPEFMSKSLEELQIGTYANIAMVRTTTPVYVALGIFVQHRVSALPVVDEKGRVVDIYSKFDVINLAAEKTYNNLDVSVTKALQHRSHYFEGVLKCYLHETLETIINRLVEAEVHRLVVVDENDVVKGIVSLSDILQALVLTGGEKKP
T1 sequence (Q13131 whole entry): as the sequence (Q13131 whole entry) above
T1 sequence (Q9Y478 2-270 partner limits assumed): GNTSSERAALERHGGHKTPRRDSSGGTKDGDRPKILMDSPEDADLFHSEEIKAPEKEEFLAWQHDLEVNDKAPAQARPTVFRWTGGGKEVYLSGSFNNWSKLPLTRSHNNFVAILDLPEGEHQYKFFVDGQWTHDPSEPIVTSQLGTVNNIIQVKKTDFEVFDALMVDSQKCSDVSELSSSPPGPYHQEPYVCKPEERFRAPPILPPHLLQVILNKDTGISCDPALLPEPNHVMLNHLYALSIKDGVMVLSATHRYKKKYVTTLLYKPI
T1 sequence (P54619 whole entry partner): as the sequence (P54619 whole entry partner) above

SMILES	IC50 (PLC/PRF/5 (PLC5) cells) [µM]	AMPK T172 activity (AMPK T172) [fold]	other results
CCCCCCCCCCC[C@@H](C[C@@H]1OC(=O)[C@H]1CCCCCC)OC(=O)[C@H](CC(C)C)NC=O [orlistat, reference compound]	–	–	body weight lost [1]: similar
O=C(Nc1cccc(Nc2nccc(-c3ccc[nH]3)n2)c1)Nc1ccc(Cl)c(C(F)(F)F)c1 [SCT-1015, 1-(3-((4-(1H-pyrrol-2-yl)pyrimidin-2-yl)amino)phenyl)-3-(4-chloro-3-(trifluoromethyl)phenyl)urea]	12.1	1.8	cell proliferation (PLC/PRF/5 (PLC5) cells; PLC/PRF/5, 5-20 μM, 48 hours and 72 hours, compared with control (DMSO) (FIG. 3)): inhibit the cell proliferation significantly; cell proliferation (SK-hep1 cells): inhibit the cell proliferation significantly; activity of the recombinant protein AMPKα1/β1/γ1 [2]: significant increase; cell proliferation (Huh-7 cells): inhibit the cell proliferation significantly; expression of phosphorylated AMPKα (p-AMPKα) [3]: significantly increased; cell morphology of mature adipocytes (mature adipocytes; 2.5 μM (FIG. 5B)): shrinkage and death; number of the mature adipocytes (mature adipocytes; 2.5-100 μM, 48 hours, compared to control (Mock), dose-dependent (FIG. 5A)): significantly decreased; regulation of downstream signaling molecules HIF1 and PDHK1 (HIF1 and PDHK1): regulates the downstream signaling molecules HIF1 and PDHK1; number of HCC1806/luc2 cell on day 14 compared to control group (HCC1806/luc2 cells): significantly less; number of HCC1806/luc2 cell on day 14 compared to day 0 (HCC1806/luc2 cells): does not show noteworthy increase; AMPK activity [4]: significant increase; body weight lost [1]: 5%; cell morphology of undifferentiated cells (undifferentiated cells): maintain a healthy cell morphology
N#Cc1ccc(-c2ccnc(Nc3cccc(NC(=O)Nc4ccc(Cl)c(C(F)(F)F)c4)c3)n2)cc1 [SCT-1013, 1-(4-chloro-3-(trifluoromethyl)phenyl)-3-(3-((4-(4-cyanophenyl)pyrimidin-2-yl)amino)phenyl)urea]	> 20	1.0	–
Cc1ccc(C(=O)Nc2ccc(Cl)c(C(F)(F)F)c2)cc1Nc1nccc(-c2ccccc2)n1 [SCT-1004, N-(4-chloro-3-(trifluoromethyl)phenyl)-4-methyl-3-((4-phenylpyrimidin-2-yl)amino)benzamide]	> 20	1.1	–
O=C(Nc1cccc(Nc2nccc(-c3cccs3)n2)c1)Nc1ccc(Cl)c(C(F)(F)F)c1 [SCT-1017, 1-(4-chloro-3-(trifluoromethyl)phenyl)-3-(3-((4-(thiophen-2-yl)pyrimidin-2-yl)amino)phenyl)urea]	> 20	1.1	–
Cc1cc(-c2ccnc(Nc3cccc(NC(=O)Nc4ccc(Cl)c(C(F)(F)F)c4)c3)n2)ccc1F [SCT-1019, 1-(4-chloro-3-(trifluoromethyl)phenyl)-3-(3-((4-(4-fluoro-3-methylphenyl)pyrimidin-2-yl)amino)phenyl)urea]	> 20	1.0	–
COc1ccc2ccccc2c1-c1ccnc(Nc2cc(C(=O)Nc3ccc(Cl)c(C(F)(F)F)c3)ccc2C)n1 [SCT-1005, N-(4-chloro-3-(trifluoromethyl)phenyl)-3-((4-(2-methoxynaphthalen-1-yl)pyrimidin-2-yl)amino)-4-methylbenzamide]	> 20	1.0	–
CSc1cccc(-c2ccnc(Nc3cc(C(=O)Nc4ccc(Cl)c(C(F)(F)F)c4)ccc3C)n2)c1 [SCT-1008, N-(4-chloro-3-(trifluoromethyl)phenyl)-4-methyl-3-((4-(3-(methylthio)phenyl)pyrimidin-2-yl)amino)benzamide]	> 20	1.0	–
Cc1ccc(C(=O)Nc2ccc(Cl)c(C(F)(F)F)c2)cc1Nc1nccc(-c2cc(Cl)cc(Cl)c2)n1 [SCT-1012, N-(4-chloro-3-(trifluoromethyl)phenyl)-3-((4-(3,5-dichlorophenyl)pyrimidin-2-yl)amino)-4-methylbenzamide]	> 20	1.0	–

The next lines start with results.

IC50 (PLC/PRF/5 (PLC5) cells) [µM]	SMILES	AMPK T172 activity (AMPK T172) [fold]	other results
> 20	Cc1cc(-c2ccnc(Nc3cc(C(=O)Nc4ccc(Cl)c(C(F)(F)F)c4)ccc3C)n2)ccc1F [SCT-1009, N-(4-chloro-3-(trifluoromethyl)phenyl)-3-((4-(4-fluoro-3-methylphenyl)pyrimidin-2-yl)amino)-4-methylbenzamide]	1.1	–
> 20	N#Cc1cccc(-c2ccnc(Nc3cccc(NC(=O)Nc4ccc(Cl)c(C(F)(F)F)c4)c3)n2)c1 [SCT-1014]	1.0	–
> 20	O=C(Nc1cccc(Nc2nccc(-c3ccc(OC(F)(F)F)cc3)n2)c1)Nc1ccc(Cl)c(C(F)(F)F)c1 [SCT-1020, 1-(4-chloro-3-(trifluoromethyl)phenyl)-3-(3-((4-(4-(trifluoromethoxy)phenyl)pyrimidin-2-yl)amino)phenyl)urea]	1.3	–
> 20	O=C(Nc1cccc(Nc2cc(-c3ccccc3)ncn2)c1)Nc1ccc(Cl)c(C(F)(F)F)c1 [SCT-1022]	1.4	–
> 20	Cc1ccc(C(=O)Nc2ccc(Cl)c(C(F)(F)F)c2)cc1Nc1nccc(-c2cccc(C#N)c2)n1 [SCT-1002, N-(4-chloro-3-(trifluoromethyl)phenyl)-3-((4-(3-cyanophenyl)pyrimidin-2-yl)amino)-4-methylbenzamide]	1.2	–
> 20	O=C(Nc1cccc(Nc2nccc(-c3ccccc3)n2)c1)Nc1ccc(Cl)c(C(F)(F)F)c1 [SCT-1016, 1-(4-chloro-3-(trifluoromethyl)phenyl)-(3-((4-phenylpyrimidin-2-yl)amino)phenyl)urea]	1.0	–
